Measurements from patent US12038445B2, “Liver disease-related biomarkers and methods of use thereof” (Human Metabolomics Institute, Inc., priority 2016, dated 2024).
“Also recorded” adds a separate entry of the source.

Assays:
[1] = Male mice treated with STZ alone; type: in vivo; conditions: male mice treated with STZ alone for 20 weeks
WRL-68 [2] = assay: Cell proliferation after BA treatment, WRL-68; type: cell-based, human; conditions: BA treatment 14 days in high glucose (27.5 mM) and oleic acid (0.3 mM)
Method: (§1) Normal human hepatic cell lines WRL-68 and THLE-2 were purchased from Sigma. For BA treatment, cells were harvested, rinsed twice in PBS, resuspended in sugar-free DMEM (Life Technologies) supplemented with 10% charcoal-stripped FBS and seeded into 6-well plate at a density of 5×10^4/well. […] After 14 days treatment, normal medium (DMEM-F12 containing 10% FBS) were added into each well to replace the spent media. Cell proliferation and anchorage-independent growth assays were performed in the normal medium. Additionally, western blot assay was performed to analyze the alteration of oncoprotein c-myc expression.

THLE-2 = assay: Cell proliferation after BA treatment, THLE-2; type: cell-based, human; conditions: BA treatment 14 days in high glucose (27.5 mM) and oleic acid (0.3 mM)
Method: as §1

HepG2 = assay: Cell proliferation after BA treatment, HepG2; type: cell-based, human; conditions: BA treatment 14 days, 100 μM
Method: (§2) Human cancer cell line, HepG2, was purchased from Sigma and maintained in DMEM-F12 (Life Technologies) supplemented with 10% fetal bovine serum (FBS, Life Technologies). For BA treatment, cells were harvested, rinsed twice with PBS, seeded in sugar-free DMEM (Life Technologies) supplemented with 10% charcoal-stripped FBS and 6 mM glucose. […] The spent media was replaced by fresh normal medium (DMEM-F12 containing 10% FBS) 14 days later. And then cells were used for cell proliferation assay and western blot analysis for the tumor suppressor protein CEBPa.

c-myc = assay: Western blot of oncoprotein c-myc in WRL-68 cells; type: cell-based, human
Method: as §1, with “5×10^4/well. We set the glucose (Glc, Sigma) at 27.5 mM and Oleic acid (OA, Sigma) at 0.3 mM to mimic high glucose and fat conditions in vitro.” for “5×10^4/well.”
(§3) Primary antibodies for c-myc (Santa Cruz), CEBPa (Santa Cruz) and Actin (Li-cor) were purchased and used with a diluted concentration as indicated by the manufacturers.

WRL-68 [3] = assay: Anchorage-independent growth assay, WRL-68; type: cell-based, human; conditions: BA treatment under high glucose and high fat condition
Method: as §1, with “5×10^4/well. We set the glucose (Glc, Sigma) at 27.5 mM and Oleic acid (OA, Sigma) at 0.3 mM to mimic high glucose and fat conditions in vitro.” for “5×10^4/well.”

CEBPα = assay: Western blot of tumor suppressor protein CEBPα in HepG2 cells; type: cell-based, human
Method: as §2, §3

Structure (SMILES)	HCC formation [1]	WRL-68 proliferation (WRL-68 [2])	THLE-2 proliferation (THLE-2)	HepG2 cell proliferation (HepG2)	expression of oncoprotein c-myc (c-myc)	anchorage-independent growth of WRL-68 compared to those treated with high glucose and high fat (WRL-68 [3])	anchorage-independent growth of WRL-68 compared with parental cells (WRL-68 [3])	expression of tumor suppressor gene CEBPα (CEBPα)
CN(N=O)C(=O)N[C@H]1C(O)O[C@H](CO)[C@@H](O)[C@@H]1O (mixture of isomers) [STZ, streptozotocin]	no HCC was observed							
C[C@H](CCC(=O)O)[C@H]1CC[C@H]2[C@@H]3[C@H](O)C[C@@H]4C[C@H](O)CC[C@]4(C)[C@H]3C[C@H](O)[C@]12C [CA, cholic acid]		significantly promoted	significantly promoted	significantly promoted				
C[C@H](CCC(=O)O)[C@H]1CC[C@H]2[C@@H]3CC[C@@H]4C[C@H](O)CC[C@]4(C)[C@H]3C[C@H](O)[C@]12C [DCA, deoxycholic acid]		significantly promoted	significantly promoted	significantly promoted	increased	significantly increased	didn't enhance	
CC(CCC(=O)NCC(=O)O)C1CCC2C3C(O)CC4CC(O)CCC4(C)C3CCC12C (centres unmarked) [GCDCA, glycochenodeoxycholic acid]		very little influence						
C[C@H](CCC(=O)NCCS(=O)(=O)O)[C@H]1CC[C@H]2[C@@H]3[C@H](O)C[C@@H]4C[C@H](O)CC[C@]4(C)[C@H]3C[C@H](O)[C@]12C [TCA, taurocholic acid]		very little influence						
C[C@H](CCC(=O)NCCS(=O)(=O)O)[C@H]1CC[C@H]2[C@@H]3[C@H](O)C[C@@H]4C[C@H](O)CC[C@]4(C)[C@H]3CC[C@]12C [TCDCA, taurochenodeoxycholic acid]		significantly promoted	significantly promoted	significantly promoted; also recorded: markedly increased	increased			reduced
